Series [1] deals with wheat. As to the kind of experiment: Safety of 15% and 25% clacyfos microemulsion used in wheat fields, increase in production (B9). The format is in vivo. The source says: The microemulsion of 15% clacyfos (the amount of clacyfos added is 15%, the preparation process is referred to preparation example A3) is in the dosage range of 180 g/hm^2 to 600 g/hm^2. The microemulsion of 25% clacyfos (the addition amount of the clacyfos is 25%, the preparation process is referred to preparation example A7) is in the dosage range of 150 g/hm^2 to 720 g/hm^2. At various testing areas, clacyfos was used by stems and leaves treatment of wheat field wheat seedlings.

Series [2] concerns monocotyledonous weeds. The series can be described thus: Clacyfos weeding spectrum, indoor and field tests (B12). Type of series: in vivo. Conditions: 700 g/hm^2 to 800 g/hm^2. The text has this:
(§1) Combining the results of indoor and field tests of clacyfos, the herbicidal spectrum of clacyfos can be summarized as follows:
(§2) Echinochloa crusgalli Beava; Digitaria Sanguinalis scop; Alopecurus aequalis; Alopecurus japonicus steud; Setaria viridis; Cynodon dactylon; Eleusine indica; Leptochloa chinensis; Arthraxon hispidus; Eleusine indica; Imperata cyllndrlca; Cyperus difformis; Cyperus iria; Kyllinga brevifolia; Poa cnnua; Monochoria vaginalis; Potamogeton distinctus; Sagittaria pygmaea; Cyperus iria; Eleocharis yokoscensis; Digitaria adscendens; Equisetum arvenense.

For series [3], the system named is Brassica pekinensis. As to the kind of experiment: Inhibitory activity of clacyfos against 22 plants or weeds (B12). The note with it: in vivo.
Excerpt: as §1, §2

The subject of series [4] is Rumex crispus L. The description is as above. Conditions: in vivo.
Excerpt: as §1, §2

Series [5] deals with Abutilontheophrasti Medicus. Described as above. The note with it: in vivo.
Excerpt: as §1, §2

Series [6] relates to Amaranthus retroflexus. The description is as above. Conditions: in vivo.
Excerpt: as §1, §2

Series [7] has as its system Alopecurus aequalis Sobol. The description is as above. The note with it: in vivo.
Excerpt: as §1, §2

In series [8] the test system is Ipomoea heperacea. Described as above. Conditions: in vivo.
Excerpt: as §1, §2

For series [9], the system named is Eclipta prostrata L. Described as above. The note with it: in vivo.
Excerpt: as §1, §2

In series [10] the test system is Beta Vulgaris. The series is described as above. Conditions: in vivo.
Excerpt: as §1, §2

In series [11] the test system is Herba Cirsii Jeponici. The series is described as above. Conditions: in vivo.
Excerpt: as §1, §2

In series [12] the test system is Eleusine indica (L.) Gaertn. The description is as above. The note with it: in vivo.
Excerpt: as §1, §2

Series [13] deals with Setaria viridis(L.) Beauv. Described as above. Conditions: in vivo.
Excerpt: as §1, §2

The test system of series [14] is Sinapis alba. Described as above. Conditions: in vivo.
Excerpt: as §1, §2

The subject of series [15] is Chenopodium album L. The series is described as above. The note with it: in vivo.
Excerpt: as §1, §2

Series [16] concerns Brassica campestris. Described as above. The note with it: in vivo.
Excerpt: as §1, §2

For series [17], the system named is Amaranthus rebroflexus L. The description is as above. Conditions: in vivo.
Excerpt: as §1, §2

In series [18] the test system is Poa annua L. Described as above. Conditions: in vivo.
Excerpt: as §1, §2

Series [19] concerns Galium aparine. Described as above. Conditions: in vivo.
Excerpt: as §1, §2

Series [20] has as its system Cyperus microiria. The series is described as above. Conditions: in vivo.
Excerpt: as §1, §2

Series [21] deals with Digitaria sanguinalis(L.) Scop. The description is as above. The note with it: in vivo.
Excerpt: as §1, §2

Series [22] concerns Echinochloa crusgalli (L.). The description is as above. Conditions: in vivo.
Excerpt: as §1, §2

The test system of series [23] is Medicago saliva. Described as above. Conditions: in vivo.
Excerpt: as §1, §2

Series [24] relates to Daucus carota L. The description is as above. The note with it: in vivo.
Excerpt: as §1, §2

Series [25] concerns Dicotyledonous and sedge weeds. As to the kind of experiment: Clacyfos weeding spectrum, indoor and field tests (B12). Type of series: in vivo. Conditions: recommended dosage of 450 g/hm^2. The source says:
Combining the results of indoor and field tests of clacyfos, the herbicidal spectrum of clacyfos can be summarized as follows: […]

Turning to `Cc1cc(Cl)ccc1OCC(=O)O` [2-methyl-4-chlorophenoxyacetic acid], in [1] (Henan, 32.5 g/mu), the “Increase in production compared with the control agent” value was “acid 32.5 g (5.51%)” and the phytotoxicity to wheat entry was “a certain phytotoxicity”. For the same molecule, the “Increase in production compared with the control agent” value in series [1] (Zaoyang, 40 g/mu) was “acid 40 g (20.91%)”.
For `COP(=O)(OC)C(C)OC(=O)COc1ccc(Cl)cc1Cl` (centres unmarked) [clacyfos, O, O-dimethyl-1-(2,4-dichlorophenoxyacetoxy) ethyl phosphonate], in [2], the “control of the monocotyledonous weeds listed” value is “can be controlled”. For the same molecule, the Visual activity in series [3] was 100%; in [4], 80%; in series [5], 85%; in [6] it was 100%; in series [7], 0%; in [8], 100%. The Visual activity is recorded as 100% in [9]; 95% in [10]; 100% in [11]; 100% in [12]; 50% in series [13]; 95% in [14]. Besides, the Visual activity in series [15] is 100%; in [16], 100%; in [17] it was 100%; in series [18], 50%; in [19] it was 60%; in series [20], 90%. The Visual activity in series [21] amounted to 40%; in [22], 30%; in series [23], 90%; in series [24], 100%. In addition, the Sensitivity entry in series [4] is reported as “Sensitive”; in series [5], “Sensitive”; in series [7], “Resistance”; in series [20], “Sensitive”; in series [23] it was “Sensitive”. For the same molecule, the “control of the dicotyledonous and sedge weeds listed” value in [25] is reported as “can be effectively controlled”.

Values taken from US20210345607A1, “MICROEMULSION FORMULATION CONTAINING CLACYFOS HERBICIDE, PREPARATION METHOD THEREFOR AND USE THEREOF” (Central China Normal University, priority 2018, published 2021).
